Holding throughout (assay): Cell viability assay (MTS), relative cell survival
Conditions in all cases: dose range, 4 h + 44 h incubation

The subject of assay [1] is BT474 (human breast cancer) cells. The format is cell-based. The method, then: (§1) Plates were rocked for 4 hours at 37° C. and 5% CO2 and then 60 μL of complete media was added to each well to bring the total volume to 100 μL and the incubation was continued, without rocking, for 44 hours at 37° C. and 5% CO2. At the conclusion of the incubation, relative cell viability was determined via MTS assay (Promega) according to manufacturer's instructions. Specifically, the media was removed from the wells and 100 μL of fresh complete media was added to each well. 20 μl of the prepared MTS reagent was added to each well. The plate was then incubated with rocking at 37° C. and 5% CO2 and readings were taken of the plate at 1, 2, and 3 hours at 490 nm using a spectrophotometer.
The cells per well were plated in black-walled, clear-bottom, 96-well plates. […] At the conclusion of the incubation, relative cell viability was determined via MTS assay (Promega) according to manufacturer's instructions. […] The plate was then incubated with rocking at 37° C. and 5% CO2 and readings were taken of the plate at 1, 2, and 3 hours at 490 nm using a spectrophotometer. […]
(§2) The cells per well were plated in black-walled, clear-bottom, 96-well plates. […] At the conclusion of the incubation, relative cell viability was determined via MTS assay (Promega) according to manufacturer's instructions. […]

The test system of assay [2] is BT474-TR (trastuzumab-resistant human breast cancer) cells. Format: cell-based. On the procedure: as §1, with “The cells per well were plated in black-walled, clear-bottom, 96-well plates. […] Plates” for “Plates”
as §2, §2

Assay [3] deals with JIMT1 (human breast cancer cells from a patient naturally resistant to trastuzumab). The format is cell-based. On the procedure: as §1, with “Relative cell survival after exposure to the described compositions was measured using a cell viability assay. 15,000, 10,000, or 8,000 cells per well were plated in black-walled, clear-bottom, 96-well plates. […] Plates” for “Plates”, “spectrophotometer. […]” for “spectrophotometer.”
The concentration of Eos-001 is reported in μM doxorubicin, and the concentration of lapatinib is reported in μM lapatinib. […] At the conclusion of the incubation, relative cell viability was determined via MTS assay (Promega) according to manufacturer's instructions. […] The plate was then incubated with rocking at 37° C. and 5% CO2 and readings were taken of the plate at 1, 2, and 3 hours at 490 nm on spectrophotometer. […]

For assay [4], the system named is SKBR3 (human breast cancer) cells. The format is cell-based. The method, then:
as §1, with “The cells per well were plated in black-walled, clear-bottom, 96-well plates. […] Plates” for “Plates”
(§3) To verify the contribution of HER3 targeted toxicity of the Eos-001 nanoparticles, a HER3 peptide was used as a competitive inhibitor. The HER3 peptide was pre-incubated with the Eos-001 particles, which bound the heregulin targeting domain. […]
as §2

Assay [5] concerns SKBR3-TR (trastuzumab resistant breast cancer) cells. Format: cell-based, human. The method, then: as §1, with “The cells per well were plated in black-walled, clear-bottom, 96-well plates. […] Plates” for “Plates”
as §3, §2

As for `CS(=O)(=O)CCNCc1ccc(-c2ccc3ncnc(Nc4ccc(OCc5cccc(F)c5)c(Cl)c4)c3c2)o1` [lapatinib], the “effect on survival / killing of BT474 cells” value in assay [1] is given as “similarly effective”. Besides, the “killing of BT474-TR cells” value in assay [2] was “slightly effective”. The “effect on survival / killing of JIMT1 cells” value in assay [3] is on record as “unable to kill”. Besides, the “killing of SKBR3 cells” value in assay [4] is listed as “similarly effective”. Also, the “killing of SKBR3-TR cells” value in assay [5] is “slightly effective”.

These data come from patent publication US20250255978A1, “DRUG-DELIVERY NANOPARTICLES AND TREATMENTS FOR DRUG-RESISTANT CANCER” (Cedars-Sinai Medical Center, priority 2016, published 2025).
